Measured values reported in patent US20210364534A1, “METHODS OF USING HISTATIN FOR DIAGNOSING AND TREATING A DRY EYE DISEASE OR OTHER OCULAR DISEASES” (THE BOARD OF TRUSTEES OF THE UNIVERSITY OF ILLINOIS, priority 2018, published 2021).
Marks after values point to notes of the source that are not given here. Non-standard residues stand in square brackets, D forms with d. No end group written: not given here. pS = N[C@@H](COP(=O)(O)O)C(=O)O

How the values were obtained:
[1] = system: TNFα; test: TNFα expression induced by BAK application to HCE cells; format: cell-based, Human; conditions: BAK-treated HCE cells, histatin co-treatment
[2] = system: IL6; test: IL6 expression induced by BAK application to HCE cells; format: cell-based, Human; conditions: BAK-treated HCE cells, histatin co-treatment
[3] = system: IL8; test: IL8 expression induced by BAK application to HCE cells; format: cell-based, Human; conditions: BAK-treated HCE cells, histatin co-treatment
[4] = system: human corneal epithelia; conditions: Shah, et al. (2017) PLoS One 12(5):e0178030; cited from earlier work
[5] = system: Human corneal epithelial (HCE) cells; test: WST-1 cell viability of HCE cells exposed to benzalkonium chloride (BAK); format: cell-based; conditions: BAK-treated HCE cells co-treated with histatin; FIG. 5
Experimental: Experiments were performed in triplicate. *<0.05, **<0.01. Bar represents SEM.
To determine whether histatins could improve symptoms of dry eye disease, cell viability assays were carried out in the presence of the toxic preservative benzalkonium chloride (BAK)(Yang, et al. (2017) Int. J. Mol. Sci. 18(3):509). Human corneal epithelial (HCE) cells were cultivated under standard conditions and viability was assessed using WST-1 reagent, a tetrazolium salt that is reduced to a red formazan dye by the mitochondrial dehydrogenases of metabolically active cells (Bartok, et al. (2015) EXCLI J. 14:123-132).

[6] = system: dry eye disease murine model (BAK exposure); test: Murine model of dry eye disease (benzalkonium chloride exposure), NEI score; format: in vivo; conditions: twice a day topical 80 μM, by 7 days, versus vehicle control (BSS); FIG. 6
Experimental: Results are based upon the National Eye Institute/Industry (NEI) grading scale (Lemp (1995) CLAO J. 21:221-232) in animals treated with H5 or Balanced Salt Solution (BSS). All experiments were performed in triplicate. *<0.05, **<0.01. Bar represents SEM.

| Substance | Decrease in cytokine expression TNFα protein [1] | Decrease in cytokine expression IL6 mRNA [2] | Decrease in cytokine expression IL6 protein [2] | Decrease in cytokine expression IL8 mRNA [3] | migration of human corneal epithelia [4] | HCE viability (WST-1) [5] | standardized dry eye disease score (NEI score) [6] |
| --- | --- | --- | --- | --- | --- | --- | --- |
| Histatin-1 (D[pS]HEKRHHGYRRKFHEKHHSHREFPFYGDYGSNYLYDN) [Histatin H1] | 12% | 82%** | 48%* | 86%** | promote migration | improved | – |
| Histatin 5 (DSHAKRHHGYKRKFHEKHHSHRGY) [Histatin H5] | 32%** | 45%* | 45% | 46%* | – | improved | reduced standardized dry eye disease score (NEI score) in a statistically significant manner |
